The test system of data set [1] is Trypanosoma cruzi. Kind of data set: Antimicrobial activity against epimastigote stage of Trypanosoma cruzi CL Brener assessed as growth inhibition at […] after 72 hrs by beta-galactosidase reporter gene assay. Format: functional. The conditions noted are these: read-out: GI. For orientation: In a reporter assay the amount or activity of a reporter protein is the signal.

Data set [2] can be described thus: Selectivity index, ratio of LC50 for mouse NCTC-929 cells to IC50 for epimastigote stage of Trypanosoma cruzi CL Brener. Format: toxicity, cell-based. The conditions noted are these: read-out: Ratio LC50/IC50.
Data set [3] in a line: Cytotoxicity against mouse NCTC-929 cells after 48 hrs by resazurin staining-based fluorescence assay. It is filed as cell-based. The conditions noted are these: read-out: LC50. A general note: Alamar Blue is a resazurin reagent that responds to reducing activity.
In data set [4] the test system is Trypanosoma cruzi. Kind of data set: Antimicrobial activity against epimastigote stage of Trypanosoma cruzi CL Brener assessed as growth inhibition after 72 hrs by beta-galactosidase reporter gene assay. Format: functional, organism-based.
A short description of data set [5]: Cytotoxicity against mouse NCTC-929 cells at […] after 48 hrs by resazurin staining-based fluorescence assay. The conditions noted are these: read-out: INH. It is filed as cell-based.
A short description of data set [6]: in vitro. The conditions noted are these: mouse, NCTC-929 cells.
Description: Selectivity index, ratio of LC50 for mouse NCTC-929 cells to IC50 for amastigote stage of Trypanosoma cruzi CL Brener infected in mouse NCTC-929 cells
For data set [7], the system named is Trypanosoma cruzi. Description: Antimicrobial activity against amastigote stage of Trypanosoma cruzi CL Brener infected in mouse NCTC-929 cells assessed as growth inhibition at 2 uM after 7 days by beta-galactosidase reporter gene assay. The conditions noted are these: NCTC-929, 168 h, read-out: GI. It is filed as functional.
Data set [8] deals with Trypanosoma cruzi. Description: Antimicrobial activity against amastigote stage of Trypanosoma cruzi CL Brener infected in mouse NCTC-929 cells assessed as growth inhibition at 16 uM after 7 days by beta-galactosidase reporter gene assay. It is filed as functional. The note with it: NCTC-929, 168 h, read-out: GI.
Data set [9] relates to Trypanosoma cruzi. Kind of data set: Antimicrobial activity against amastigote stage of Trypanosoma cruzi CL Brener infected in mouse NCTC-929 cells assessed as growth inhibition at 1 uM after 7 days by beta-galactosidase reporter gene assay. It is filed as functional. The conditions noted are these: NCTC-929, 168 h, read-out: GI.
Data set [10] deals with Trypanosoma cruzi. Kind of data set: Antimicrobial activity against amastigote stage of Trypanosoma cruzi CL Brener infected in mouse NCTC-929 cells assessed as growth inhibition at 4 uM after 7 days by beta-galactosidase reporter gene assay. It is filed as functional. The note with it: NCTC-929, 168 h, read-out: GI.
Data set [11] concerns Trypanosoma cruzi. Kind of data set: Antimicrobial activity against amastigote stage of Trypanosoma cruzi CL Brener infected in mouse NCTC-929 cells assessed as growth inhibition at 0.5 uM after 7 days by beta-galactosidase reporter gene assay. The note with it: NCTC-929, 168 h, read-out: GI. Format: functional.
Data set [12] relates to Trypanosoma cruzi. Kind of data set: Antimicrobial activity against amastigote stage of Trypanosoma cruzi CL Brener infected in mouse NCTC-929 cells assessed as growth inhibition at 8 uM after 7 days by beta-galactosidase reporter gene assay. It is filed as functional. The note with it: NCTC-929, 168 h, read-out: GI.
Data set [13] has as its system Trypanosoma cruzi. Description: Antimicrobial activity against amastigote stage of Trypanosoma cruzi CL Brener infected in mouse NCTC-929 cells assessed as growth inhibition at 32 uM after 7 days by beta-galactosidase reporter gene assay. The note with it: NCTC-929, 168 h, read-out: GI. It is filed as functional.
For data set [14], the system named is Trypanosoma cruzi. Kind of data set: Antimicrobial activity against amastigote stage of Trypanosoma cruzi CL Brener infected in mouse NCTC-929 cells assessed as growth inhibition after 7 days by beta-galactosidase reporter gene assay. Format: functional, organism-based. The conditions noted are these: NCTC-929, 168 h.

Usually IC50 stands for the concentration at which inhibition is half-maximal. As for `O=C1CSC(c2ccc3c(c2)OCO3)N1CCNc1ccnc2cc(Cl)ccc12` (stereo unspecified), the inhibition of growth at […] in data set [1] is 84.3%. For the same compound, the selectivity ratio in data set [2] worked out at 2.85. In data set [3], the CC50 at 48 h is 19.5 µM. The IC50 in data set [4] was 6.84 µM.

For the compound `Clc1ccc2c(NCc3ccccc3)ccnc2c1`, the inhibition of growth at […] in data set [1] stood at 95.1%. Further, in data set [2], the selectivity ratio was determined as 3.71. Besides, in data set [5], the cytotoxicity at 48 h, […] is 71.4%. Moreover, the CC50 at 48 h in data set [3] was found to be 2.28 µM. In data set [4], the IC50 was 6.55 µM.

Turning to `O=C(Cn1ccnc1[N+](=O)[O-])NCc1ccccc1` [BENZNIDAZOLE], the inhibition of growth at […] in data set [1] came out at 82%. The selectivity ratio in [2] is more than 9.44; in data set [6], more than 320. Also, in data set [7], the inhibition of growth at 2 µM was determined as 64.4%. In addition, the inhibition of growth at 16 µM in [8] was 100%. For the same compound, the inhibition of growth at 1 µM in data set [9] is 55.6%. Besides, the inhibition of growth at 4 µM in [10] was 74.7%. The inhibition of growth at 0.5 µM in data set [11] was 41.6%. Besides, in data set [12], the inhibition of growth at 8 µM amounted to 96.6%. In addition, the cytotoxicity at 48 h, […] in data set [5] came out at 17.4%. Moreover, in data set [3], the CC50 at 48 h was more than 256 µM. The inhibition of growth at 32 µM in data set [13] was 100%.

For the compound `CC1CS(=O)(=O)CCN1/N=C/c1ccc([N+](=O)[O-])o1` (stereo unspecified) [NIFURTIMOX], the inhibition of growth at […] in data set [1] was found to be 100%. Moreover, in data set [7], the inhibition of growth at 2 µM was determined as 100%. Also, in [8], the inhibition of growth at 16 µM worked out at 100%. For the same compound, the inhibition of growth at 1 µM in data set [9] is 100%. In addition, in data set [10], the inhibition of growth at 4 µM was 100%. The inhibition of growth at 0.5 µM in data set [11] worked out at 96.5%. In [12], the inhibition of growth at 8 µM worked out at 100%. Moreover, the cytotoxicity at 48 h, […] in data set [5] worked out at 26.8%. Also, the half-inhibitory concentration (IC50) in data set [14] is less than 0.5 µM. Further, the inhibition of growth at 32 µM in [13] came to 100%.

The values are drawn from ChEMBL document CHEMBL3112467, “In vitro phenotypic screening of 7-chloro-4-amino(oxy)quinoline derivatives as putative anti-Trypanosoma cruzi agents” (Bioorg Med Chem Lett, 2014).
